The text below walks through data of patent publication US7709516B2, “Helix 12 directed non-steroidal antiandrogens” (Endorecherche, Inc., priority 2005, dated 2010).

A word on the pIC50: it is the IC50 on a negative log10 scale, so that one unit is a factor of ten.

The structures appear in SMILES notation. pIC50: −log10 of the molar value. Where two headings read alike, the source gives them in different places.

Experiment [1] concerns Shionogi mouse mammary carcinoma cells. Nature of the experiment: Androgenic/antiandrogenic activity: inhibition of DHT-stimulated Shionogi cell number. Format: cell-based. The following applies: Mus musculus, DHT-stimulated Shionogi cell number.
Experiment [2] concerns the target T1, Human Androgen Receptor (Homo sapiens, UniProt P10275).
T1 sequence (P10275 1-920): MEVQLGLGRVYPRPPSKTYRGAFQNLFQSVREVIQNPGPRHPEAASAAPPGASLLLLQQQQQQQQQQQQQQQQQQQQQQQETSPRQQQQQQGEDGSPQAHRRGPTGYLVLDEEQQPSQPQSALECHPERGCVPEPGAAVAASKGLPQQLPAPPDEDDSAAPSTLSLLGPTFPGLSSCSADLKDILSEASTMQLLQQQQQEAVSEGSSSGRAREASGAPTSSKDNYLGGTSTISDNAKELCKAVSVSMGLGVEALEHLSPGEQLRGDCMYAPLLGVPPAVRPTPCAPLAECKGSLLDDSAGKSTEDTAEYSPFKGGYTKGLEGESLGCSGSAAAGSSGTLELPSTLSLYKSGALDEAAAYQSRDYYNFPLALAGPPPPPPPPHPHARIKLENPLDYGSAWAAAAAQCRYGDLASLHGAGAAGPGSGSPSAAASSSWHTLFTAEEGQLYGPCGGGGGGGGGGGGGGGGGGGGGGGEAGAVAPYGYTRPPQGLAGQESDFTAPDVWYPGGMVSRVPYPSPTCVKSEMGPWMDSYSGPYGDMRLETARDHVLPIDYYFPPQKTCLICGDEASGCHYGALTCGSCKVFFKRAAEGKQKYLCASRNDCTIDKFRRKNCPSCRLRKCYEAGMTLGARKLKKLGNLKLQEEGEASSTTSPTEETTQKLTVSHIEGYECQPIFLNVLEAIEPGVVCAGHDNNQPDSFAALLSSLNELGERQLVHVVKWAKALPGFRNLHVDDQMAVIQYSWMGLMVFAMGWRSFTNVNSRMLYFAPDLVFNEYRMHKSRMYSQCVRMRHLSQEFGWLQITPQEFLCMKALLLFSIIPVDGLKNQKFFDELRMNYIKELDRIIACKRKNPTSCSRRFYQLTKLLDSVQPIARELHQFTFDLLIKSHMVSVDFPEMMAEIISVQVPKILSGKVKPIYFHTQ
Put plainly: Androgen receptor binding assay ([3H]R1881, HAP) in cytosol of HEK-293 cells transfected with hAR. Particulars: relative to R1881 = 100, transfected cells.

Experiment [3] concerns rat prostate, seminal vesicle, levator ani muscle. Put plainly: Systemic antiandrogenic activity in orchidectomized immature male rats with DHT implant. Format: in vivo. The following applies: Rattus norvegicus, 168 h, rat +DHT, s.c. or p.o. (route not marked), 0.5 mg/animal daily 7 days.
Experiment [4] has as its system sebaceous glands of the left ear. Nature of the experiment: Topical antiandrogenic activity, ear sebaceous glands model in the male hamster. Format: in vivo. The following applies: 3 μg daily dose for 14 days. The procedure:
Column 5 represents the percentage of inhibition of the area of the sebaceous glands of the left ear of the treated animals versus the area of the sebaceous glands of the left ear of the control animals. A 3 μg-daily dose for 14 days of tested compound dissolved in ten μL solution of ethanol: propylene Glycol (1:1; v: v) applied onto a region between the two cartilage ridges of the ventral surface of left pinna.
D—In vivo Assessment of Topical Antiandrogenic Activity
The antiandrogenic activity of compounds for topical use was determined using the ear sebaceous glands model in the male hamster.
Male Golden Syrian Hamsters (SYR) of 110-120 g were obtained from Harlan Sprague-Dawley (Madison, USA) and housed up to 2 per plastic cage in a temperature (22±3° C.) and light (12 h light/day, lights on at 7h15)-controlled environment. The hamsters were fed with Certified Rodent Diet 5002 (pellet) and had access to tap water ad libitum. […]
The total area of the sebaceous glands (μm^2) in each examined field was calculated by the Image Analyser. We also measured the total area, which has the length of 0.953 mm and the height between stratum granulosum and the cartilage. […] Thus, for each ear, two sections were cut and two fields from each section were analyzed. The total of the four readings was averaged and the mean standard error of the mean was calculated by the image analyzer. […]

Regarding `CCC(c1ccc(OCCC2(O)CCN(c3ccc(C#N)c(C(F)(F)F)c3)CC2)cc1)N1CCCC1` (centres unmarked) [EM-7893, 4-(4-{2-[4-(1-propyl-pyrolidine)-phenoxy]-ethyl}-4-hydroxy-piperidin-1-yl)-2-trifluoromethyl-benzonitrile], the pIC50 in experiment [1] (read-out: Shionogi Antiandrogenic Activity IC50, Table 2) was 8.29; in experiment [1] (read-out: Shionogi Antiandrogenic Activity IC50, Table 4), 8.29. Also, the “Human Androgen Receptor Binding (%) RBA R1881 = 100” value in experiment [2] (Table 2) and in experiment [2] (Table 4) was 10.3% throughout. Also, the inhibition in vivo at 0.5 mg in experiment [3] (read-out: Lev Ani % inhibition, Table 2, levator ani) was found to be 26%; in experiment [3] (read-out: Prostate % inhibition, Table 2), 6%; in experiment [3] (read-out: SV % inhibition, Table 2, seminal vesicle), 38%. Besides, the “Hamster Topical 3 μg dose % inhibition vs cx (area of sebaceous glands of the left ear)” value in experiment [4] worked out at 47%.
